Legend:
TcCYP51 = conditions: formerly reported; cited from earlier work
[1] = tested on: T. cruzi Tulahuen trypomastigotes; test: T. cruzi trypomastigote assay (Cell Titer-Glo viability, ATP luminescence); assay type: cell-based, Trypanosoma cruzi; conditions: for Trypomastigotes pIC50 48 hours: 48 hours incubation; for Trypomastigotes pIC50 48 hours / Trypomastigotes pIC50 72 hours: pIC50 = -log10 IC50 in molar units; for Trypomastigotes pIC50 72 hours: 72 hours incubation; for 72 pIC50 (trypomastigotes, raw data of Fig 1D): 72 hours, plotted values, censored values given without sign; for 48 pIC50 / 72 pIC50: trypomastigote assay; for 48 pIC50: 48 h; for 72 pIC50: 72 h; for activity in trypomastigotes assay (in words): 48 and 72 hours
Summary of the method: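 Compounds were tested in dose response or once at a final 5 μM against 5 × 10^4 trypomastigotes per well (DMEM, 2% FBS), collected on days 5–8 from LLC-MK2 infected cultures. ATP luminescence via CellTiter-Glo reports live parasites; DMSO defines 0% and cell-free wells 100% effect.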

[2] = tested on: H9c2 (rat cardiomyocytes); test: RoK assay, number of host cells nuclei (drug-related cytotoxicity, H9c2 output, Cmin_Tox); conditions: H9c2 host cells
Summary of the method: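 Host-cell toxicity is read as DRAQ5-stained nuclei counts from automated confocal imaging of T. cruzi-infected H9c2 cells, tracked across time at each concentration. Cmin_Tox denotes the lowest compound concentration dropping host cell number under 50% of initial cell density.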

Row | SMILES | CYP51 pIC50 (TcCYP51) | Trypomastigotes pIC50 48 hours [1] | Trypomastigotes pIC50 72 hours [1] | 72 pIC50 (trypomastigotes, raw data of Fig 1D) [1] | 48 pIC50 ([1]; figure 1A) | 72 pIC50 ([1]; figure 1A) | 72 pIC50 ([1]; figure 1B) | Cmin_Tox [2] [µM] | activity in trypomastigotes assay (in words) [1]
1 | Fc1ccc(OC2CC(NCc3cccc4cn[nH]c34)C2)cc1C(F)(F)F (stereo not shown) [TCMDC-143455] | 6.9 | 5 | 5 | 5 | 5 | 5 | 5 | 16.7 | –
2 | CS(=O)(=O)c1cccc(-c2cnc(N)c3c(-c4ccc(CO)cc4)csc23)c1.O=C(O)C(F)(F)F [TCMDC-143410] | 5.5 | 4.5 | 4.4 | – | – | – | – | >50 | –
3 | COc1ccc(C2CC(c3ccccc3Cl)=NN2C(=O)CNC(=O)C2CCC2)cc1 (stereo not shown) [TCMDC-143130] | 4.3 | 4.6 | 4.7 | – | – | – | – | >50 | –
4 | CC(=Cc1ccccc1)CN1CCC(=O)N(Cc2cccnc2)CC1 [TCMDC-143421] | 7 | 4.7 | < 4.3 | – | – | – | – | >50 | –
5 | COc1cc(C(C)C)c(S(C)(=O)=O)cc1C(=O)N1CCN(c2ccccc2Cl)CC1 [TCMDC-143097] | < 4 | < 4.3 | < 4.3 | < 4.3 | < 4.3 | < 4.3 | < 4.3 | >50 | –
6 | Cc1cc2cncn2c(C2CCCCN2C(=O)c2cccs2)n1 (stereo not shown) [TCMDC-143500] | 7 | < 4.3 | < 4.3 | < 4.3 | < 4.3 | < 4.3 | < 4.3 | >50 | –
7 | COc1ccc(CN(C)Cc2ccncc2)cc1-c1ccc(S(=O)(=O)NC2CCC2)s1.O=C(O)C(F)(F)F.O=C(O)C(F)(F)F [TCMDC-143084] | 7.1 | 5 | 4.9 | – | – | – | – | >50 | –
8 | CCCN(Cc1ccc(OC)c(OC)c1)Cc1cc(=O)c2c(C)cc(C)cc2[nH]1 [TCMDC-143331] | 4.5 | 5.4 | 5.6 | – | – | – | – | >50 | active
9 | CCOc1ccc(NC(=O)C=Cc2ccc(CC)o2)cc1 [TCMDC-143160] | < 4 | 5.4 | 5 | – | – | – | – | 50.0 | –
10 | O=C(NC1C(=O)N(c2ccccc2)C1c1cccnc1)c1ccc(Cl)s1 (stereo not shown) [TCMDC-143324] | 6.7 | < 4.3 | < 4.3 | < 4.3 | < 4.3 | < 4.3 | < 4.3 | >50 | –
11 | CCOc1cnn(C)c(=O)c1Nc1ccc(C(=O)NCc2ccc(F)cc2)cc1 [TCMDC-143319] | 5.4 | < 4.3 | < 4.3 | < 4.3 | < 4.3 | < 4.3 | < 4.3 | >50 | –
12 | CN(C(=O)Nc1ccc2c(c1)CCN(C1CCC1)CC2)c1ccc(C#N)cc1.Cl [TCMDC-143526] | < 4 | < 4.3 | < 4.3 | < 4.3 | < 4.3 | < 4.3 | < 4.3 | >50 | –
13 | N#Cc1ccc(S(=O)(=O)N2CCC3(CCN(c4ccccc4)C3=O)CC2)cc1 [TCMDC-143371] | < 4 | < 4.3 | < 4.3 | < 4.3 | < 4.3 | < 4.3 | < 4.3 | >50 | –
14 | CN(C)Cc1ccc(-c2ccc(S(=O)(=O)NCC3CCCO3)c(F)c2)cc1.O=C(O)C(F)(F)F (stereo not shown) [TCMDC-143085] | 4.4 | < 4.3 | < 4.3 | < 4.3 | < 4.2 | < 4.3 | < 4.3 | >50 | –
15 | COc1ccc(S(=O)(=O)NCc2ccc(-c3ccc(CN(C)CCO)cc3)cc2)cc1.O=C(O)C(F)(F)F [TCMDC-143549] | 4.8 | 4.6 | < 4.3 | – | – | – | – | >50 | –
16 | O=C(N1CCc2ccccc2CC1)C1(C(=O)N2CCC(n3c(=O)[nH]c4ncccc43)CC2)CC1.O=C(O)C(F)(F)F [TCMDC-143381] | 6.5 | < 4.3 | < 4.3 | < 4.3 | < 4.3 | < 4.3 | < 4.3 | >50 | –
17 | Cc1sc(C)c(C(F)(F)F)c1CNCCCNc1cc(=O)c2ccccc2[nH]1.Cl [TCMDC-140766] | 4.7 | 4.9 | 5.3 | – | – | – | – | 50.0 | –
18 | Cc1c(C(C)NC(=O)Nc2cccc(Cl)c2)sc2ncnn12 (stereo not shown) [TCMDC-143405] | 6.9 | < 4.3 | < 4.3 | < 4.3 | < 4.3 | < 4.3 | < 4.3 | >50 | –
19 | O=c1[nH]ccc2ccc(-c3ccncc3)cc12 [TCMDC-143631] | 7.8 | < 4.3 | < 4.3 | < 4.3 | < 4.3 | < 4.3 | < 4.3 | >50 | –
20 | CN(C)CCOc1ccc(N2CCN(S(=O)(=O)c3ccc(Cl)cc3)CC2)cc1 [TCMDC-143622] | 4.6 | < 4.3 | < 4.3 | < 4.3 | < 4.3 | < 4.3 | < 4.3 | >50 | –
21 | CN(C)Cc1ccc(N2CCC(NS(=O)(=O)c3ccc(Cl)cc3)CC2)cc1 [TCMDC-143623] | < 4 | 4.5 | 4.4 | – | – | – | – | 25.3 | poorly active
22 | CC(C)(C)C(Cn1ccnc1)NC(=O)c1ccc2nc(C3CC3)oc2c1 (stereo not shown) [TCMDC-143336] | 7 | 5 | < 4.3 | – | – | – | – | >50 | –
23 | O=C(C1CCCCC1)N1CCN(c2nnc(-c3ccccc3)c3ccccc23)CC1 [TCMDC-143511] | < 4 | < 4.3 | < 4.3 | < 4.3 | < 4.3 | < 4.3 | < 4.3 | >50 | –
24 | COc1ccccc1-c1c(C)[nH]c2nc(N)nc(C)c12 [TCMDC-143610] | 4.1 | 6.4 | 6.5 | – | – | – | – | >50 | active
25 | O=C(NCCc1ccccn1)C(c1cn[nH]c1)N1CCN(c2ccc(Cl)c(Cl)c2)CC1 (stereo not shown) [TCMDC-143411] | 6.9 | < 4.3 | < 4.3 | < 4.3 | < 4.3 | < 4.3 | < 4.3 | >50 | –
26 | CC(C)Nc1nccc(-c2c(-c3ccc(F)cc3)ncn2C2CCOCC2)n1 [TCMDC-143379] | < 4 | < 4.3 | < 4.3 | < 4.3 | < 4.3 | < 4.3 | < 4.3 | >50 | –
27 | CN(Cc1ccc(C(N)=O)cc1)C(c1ccc(F)cc1)c1cccnc1 (stereo not shown) [TCMDC-143504] | 7 | < 4.3 | < 4.3 | < 4.3 | < 4.3 | < 4.3 | < 4.3 | >50 | –
28 | CCn1nccc1CN(C)C(=O)C=Cc1ccc(Cl)cc1 [TCMDC-143325] | 6.5 | < 4.3 | < 4.3 | < 4.3 | < 4.3 | < 4.3 | < 4.3 | >50 | –
29 | CC(=O)Nc1ccc(-c2noc(CC3CCCN(Cc4cccc(F)c4C)C3)n2)cc1 (stereo not shown) [TCMDC-143362] | < 4 | 5.2 | 5.3 | – | – | – | – | 50.0 | –

— paper PMC8318231, “Rate-of-Kill (RoK) assays to triage large compound sets for Chagas disease drug discovery: Application to GSK Chagas Box” (PLoS Neglected Tropical Diseases, 2021)
